The record followed here is PMC7088215 (The Protein Journal, 2015).

In test [1] the target is T1, SaPriA (PriA helicase) (Staphylococcus aureus, UniProt Q2G266).
T1 sequence (Q2G266 1-802): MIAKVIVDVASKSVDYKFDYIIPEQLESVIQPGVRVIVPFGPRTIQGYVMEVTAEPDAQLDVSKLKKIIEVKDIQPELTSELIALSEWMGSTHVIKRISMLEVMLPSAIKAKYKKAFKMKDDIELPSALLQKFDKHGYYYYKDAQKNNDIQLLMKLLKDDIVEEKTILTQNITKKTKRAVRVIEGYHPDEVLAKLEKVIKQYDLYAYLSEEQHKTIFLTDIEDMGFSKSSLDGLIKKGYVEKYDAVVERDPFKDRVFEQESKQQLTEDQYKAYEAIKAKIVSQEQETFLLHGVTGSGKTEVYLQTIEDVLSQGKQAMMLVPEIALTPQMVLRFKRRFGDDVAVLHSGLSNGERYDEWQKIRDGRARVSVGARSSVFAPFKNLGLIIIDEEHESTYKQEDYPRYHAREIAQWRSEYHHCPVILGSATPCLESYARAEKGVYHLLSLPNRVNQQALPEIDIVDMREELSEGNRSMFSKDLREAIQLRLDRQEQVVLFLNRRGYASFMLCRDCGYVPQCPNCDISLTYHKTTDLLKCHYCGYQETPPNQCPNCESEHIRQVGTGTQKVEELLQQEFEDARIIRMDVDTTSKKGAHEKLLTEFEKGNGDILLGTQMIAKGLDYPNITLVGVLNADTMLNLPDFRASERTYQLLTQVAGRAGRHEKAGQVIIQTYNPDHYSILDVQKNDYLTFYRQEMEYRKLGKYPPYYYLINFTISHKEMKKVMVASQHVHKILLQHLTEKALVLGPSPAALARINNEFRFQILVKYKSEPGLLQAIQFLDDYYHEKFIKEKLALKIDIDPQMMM
The experiment in a line: intrinsic fluorescence quenching titration of purified SaPriA. In kind it is binding.

Test [2] deals with T1, SaPriA (PriA helicase). Put plainly: vanadate-sensitive colorimetric ATPase assay, single concentration of […]. Format: biochemical. Particulars: read-out: %.

The Kd is the concentration at which binding is half-saturated. Low readings indicate tighter binding, high ones weaker binding. On SaPriA (PriA helicase) [1], `O=c1c(O)c(-c2ccc(O)cc2)oc2cc(O)cc(O)c12` [kaempferol] gave a Kd of 9.1 ± 3.2 µM.
Consider `O=c1c(O)c(-c2cc(O)c(O)c(O)c2)oc2cc(O)cc(O)c12` [myricetin], for which, on SaPriA (PriA helicase) [2], the activity at 35 µM stood at 69%.
